Here are results for three molecules from US20030211458A1, “Measurements of enzymatic activity in a single, individual cell in population” (priority 2000, published 2003).

Data set [1] deals with Peripheral blood lymphocytes. The following applies: individual cell, FDA staining before and after incubation at 37° C., FIG. 7.
Protocol: Peripheral blood lymphocytes were loaded on a CC, and exposed to FDA, after which individual FI(t) was measured. […] At the end of incubation, the same cells were again exposed to the same FDA concentration and FI(t) measurements were again performed.
Since cells are in general heterogeneous, one would expect a distribution of FI(t) rates (slopes) in the same experiment. […] Thus, in such an experimental procedure, the determining parameter is the ratio between the initial and the final slopes, namely, the ratios between FI(t) slopes prior to and after incubation (with and without drugs), as well as ratios of individual KMAPP and VMAX prior to and after incubation.
Data set [2] relates to intracellular nonspecific esterase. Kind of data set: Individual-cell sequential FDA hydrolysis (KMAPP, VMAX) on CS-S cytometer. The data set is classed as cell-based, human. The following applies: different cell carriers.
Data set [3] shares this test system. Described as above. The data set is classed as cell-based, human. The settings on record: for FI rate ratios of the same trapped cells sequentially exposed to different FDA concentrations: same cell carrier; for average KMAPP / average VMAX: average of individual cells. The protocol: Measuring Intracellular Nonspecific Esterase Activity in a Single Lymphocyte Using Fluorescein-Diacetate (FDA) as the Substrate.
Phytohemagglutinin PHA (HA15, Murex Biotech) was reconstituted in 5 ml of double-distilled water and further diluted ten times. For stimulation, 10 μl of this solution was added to a 90 μl cell suspension (7×10^6 cells/ml).
A staining solution of 3.6 μM FDA (Riedel-de Haen Ag. Seelze-Hanover) in Dulbecco Phosphate Buffered Saline (PBS, Biological Industries) was prepared as follows: 50 mg of FDA was dissolved in 5 ml of DMSO (Sigma). 7.5 μl of this solution was added to 50 ml PBS. For 0.6, 1.2 and 2.4 μM the solution was further diluted in PBS.
30 Heparinized blood (30 ml), was taken from healthy, normal volunteers. The procedure for separating the PBMC has been described in detail, elsewhere [Sunray M, Deutsch M, Kaufman M, Tirosh R, Weinreb A, and Rachmani H. Cell Activation influences cell staining linetics, Spectrochimica Acta A (1997) 53:1645-1653]. Shortly after removing the iron absorbing cells, the remaining cells are layered on a two-layer (100% and 80%) cell density gradient (Ficoll Paque, Pharmacia 1.077 g/ml) and centrifuged. The cells accumulated at the interface between the two Ficoll layers, were collected and kept at 37° C. in 5 ml of enriched culture medium overnight. The next day the PBMC were washed and resuspended in PBS at a final concentration of 7·10^6 cells/ml. More than 70% of the cells were defined as T lymphocytes and viability, which was determined using eosin, was always higher than 90%.
Freshly prepared PBMC (7·10^6 cells/ml) were incubated at 37° C., 5% CO2 with 5 μgr/ml PHA for 30 minutes. PBMC controls were incubated without PHA under identical conditions.
The multiparametric, computerized, discrete cytometer CS-S used in performing this example was described in detail in the above specified US Patents. Its central feature is a cell carrier (CC) incorporating a 100×100 dimensional array having a conical cross-section with an upper opening of ˜7 μm and lower opening of ·4 μm, each approximately 20 μm apart, in which individual cells are trapped. The cell carrier is mounted on a computer-controlled stage that enables repeated multi-scanning of the same cells.
Loading the cells in wells traps on the Cell Carrier (CC) was carried out, as described in Deutsch M, and Weinreb A., Apparatus for High Precision Repetitive Sequential Optical Measurement of Living Cells, Cytometry (1994) 16: 214-226. An aliquot of 80 μl of unstained cell suspension (7×10^6 cells/ml) was loaded on the CC. Initial scanning was then performed in order to detect individual cell background scattering and auto-fluorescence. This undesired signal is recorded per measurement location and subtracted from the total emission signal (after exposure) in order to obtain the correct fluorescence signal.
For fluorescence intensity FI(t) measurements, trapped cells on the CC were sequentially exposed to increasing concentrations of FDA in PBS staining solutions.
Following background measurement, the volume of PBS, which covers the cells, was pumped out and the following procedure was carried out:
At time point zero, 40 μl of the lowest substrate concentration solution was applied on top of the trapped cells and a pre-chosen cell field was sequentially scanned 6 times. This yielded 6 accurately timed FI data points per each individual cell at a given dye concentration. FI is usually measured utilizing epi-fluoescence optical arrangement which permits the differentiation between the excitation energy and the emitted fluorescence energy to be detected by photomultipliers, CCD detectors etc.
The above procedure is repeated for each different substrate solution used in the experiment.
This yielded six FI data points for each individual cell, per substrate concentration, from which V was extracted and the individual cell KMAPP and VMAX values were calculated. […]

The test system is the same in data set [4]. The data set is described as follows: Flow cytometer (FACSCalibur) population average KMAPP and VMAX of FDA hydrolysis. The data set is classed as cell-based, human. The method, then: Methods Cell Biol (1994) 41: 469-508. Four means of intracellular fluorescence intensities (IFI) were calculated from data accumulated along four time gates of 25 second each and 30 seconds apart, from which V0 was extracted. This process was sequentially performed on five different aliquots of cells (50 μl, at a concentration of 6×10^6 cells/ml) each exposed to different FDA concentrations (0.3, 0.6, 1.2, 1.8 and 2.4 μM. Introducing these average V0 in values Eq. 8 yielded population average KMAPP and VMAX of 2.16 μM and 4.32 μM and 6.6 and 5.83 in cells incubated with and without PHA. It should be noted that while KMAPP is an intrinsic value, VMAX depends on the optoelelctronic arrangement under use. Thus, obviously, at the population level, measurements carried out both on FC and average calculated from individual cell KMAPP measurement data yield similar KMAPP values, indicating the validity of the invented methodology.
A general note: A flow cytometer gives signals particle by particle.

[5] abbreviates: 1.2/0.6 μM FDA (concentration ratio 2.0).
[6] abbreviates: 2.4/0.6 μM FDA (concentration ratio 4.0).
The mark [7] stands for this setting: 3.6/0.6 μM FDA (concentration ratio 6.0).
[8] abbreviates: FDA substrate, cells incubated without PHA, CS-S.
Where [9] appears, read: FDA substrate, cells incubated without PHA.
Where [10] appears, read: PHA-incubated vs control cells, CS-S.

As for `OO` [H2O2, hydrogen peroxide], in data set [1], the “ratio pre to post treatment slopes (FI rate), control cells relative to treated cells” value is “double”.

For `CC(=O)Oc1ccc2c(c1)Oc1cc(OC(C)=O)ccc1C21OC(=O)c2ccccc21` [FDA, Fluorescein-Diacetate], the results for the “FI rate ratios of cells parallely exposed to different FDA concentrations” value in data set [2] (setting [5]), in data set [2] (setting [6]) and in data set [2] (setting [7]) were 1.9, 4.4 and 6.2, respectively. For the same molecule, the “FI rate ratios of the same trapped cells sequentially exposed to different FDA concentrations” value stood at 2.1 in data set [3] (setting [5]), 3.6 in data set [3] (setting [6]) and 5.6 in data set [3] (setting [7]). Also, the “average KMAPP” value in data set [3] (setting [8]) was found to be 4.88 µM. For the same molecule, the “average VMAX” value in data set [3] (setting [8]) is 695 intensity/sec. Also, the “population average KMAPP” value in data set [4] (setting [9]) was found to be 4.32 µM. The “population average VMAX” value in data set [4] (setting [9]) was found to be 5.83.

Phytohemagglutinin [PHA]: in data set [3] (setting [10]), the “decrease in KMAPP compared to the control” value worked out at 69% and the “decrease in VMAX compared to the control” value is listed as 6%. For the same molecule, the “average KMAPP” value in data set [3] (cells incubated with PHA, FDA substrate 0.6-3.6 μM, CS-S) was found to be 1.50 µM. In addition, in data set [3] (cells incubated with PHA, FDA substrate, CS-S), the “average VMAX” value was found to be 652 intensity/sec. The “population average VMAX” value in data set [4] (cells incubated with PHA) came to 6.6. The “population average KMAPP” value in data set [4] (cells incubated with PHA, FDA 0.3-2.4 μM) was found to be 2.16 µM.
